Reference: PubChem BioAssay AID2060902 (Molecular Pharmacology Branch, DTP, NCI, 2025)

Tested on: 485368-065-R3-J5-PDC spheroids with HUVEC/MSC, viability
Assay: Anticancer human tumor 485368-065-R3-J5-PDC patient-derived pancreatic carcinoma cell line growth inhibition [RAS]
Settings: for IC50: curve of first compound; for viability, T/C: stronger effect = lower value; active means viability on the fitted dose curve at most 10% of control; inactive means the rest
Text: RAS pathway inhibitors in Combinations in Complex Spheroids
A high-throughput screen of multi-cell type tumor spheroids was designed to identify active combinations of RAS pathway inhibitors and targeted small molecules. Complex spheroids include a stromal component modeled by human endothelial cells (HUVEC) and fibroblasts modeled by human mesenchymal stem cells (MSCs). The concentration ranges selected for each drug and investigational agent were based upon clinically achievable concentrations if the clinical Cmax of the agent was known.
Compounds. The drugs and investigational agents: abemaciclib (NSC768073), cobimetinib (NSC768068), divarasib (GDC6063, NSC841802), docetaxel (NSC628503), GDC-1971 (RLY-1971, NSC841576), gemcitabine (NSC613327), inavolisib (NSC800729), ipatasertib (NSC767898), KB-0742 (NSC834161), MRTX-1133 (NSC836407), osimertinib (NSC779217), RMC-4630 (NSC839698), RMC-6236 (NSC851965), RMC-6291 (NSC852671), Ro-3306 (NSC812927), sapanisertib (NSC764658), SN-38 (NSC673596), staurosporine (NSC755774), SY5609 (NSC837396), and tovorafenib (DAY101, NSC766906), were obtained from the National Cancer Institute (NCI) Developmental Therapeutics Program Chemical Repository. The FDA-approved anticancer drug set is available from the NCI Developmental Therapeutics Program. […] The stock solutions were prepared in dimethyl sulfoxide (DMSO, Sigma-Aldrich, St. Louis, MO, cat. D2650) at 800-fold the tested concentration and stored at -70 degrees C prior to their use. All drugs and investigational agents were tested over a range starting from a high concentration at or near the clinical Cmax and decreasing in half-log increments. If the clinical Cmax for an agent had not been determined, the highest concentration tested was 10 microM.
Cell Culture. All cells were maintained in an incubator at 37 degrees C and 5% CO2 with 95% humidity. The PDC lines were cultured according to standard operating procedures established by the NCI PDMR. All PDCs were thawed and cultured in Matrigel-coated flasks prepared with a working solution of 1X Ham's F-12 nutrient mix, without supplementation (Invitrogen, Waltham, MA, cat. 11765054), 100 U/mL penicillin-streptomycin (Invitrogen, cat. 15140122), and 2.5% Matrigel (Corning Inc., Corning, NY, cat. 354248) for the first three passages. The 362531-283-R-J2-PDC and 782815-120-R-J1-PDC lines were cultured in 6C/Colon 1B media, which includes advanced DMEM/F-12 (Thermo Fisher Scientific, cat. 12634028), 10 mM HEPES (Thermo Fisher Scientific, cat. 15630080), 1X GlutaMAX supplement (Thermo Fisher Scientific, cat. 35050061), 0.1 mg/mL primocin (InvivoGen, San Diego, CA, cat. ant-pm-2), 10% defined fetal bovine serum, heat inactivated (HyClone Laboratories Inc., Logan, UT, cat. SH30070.03HI), 50% L-WRN conditioned media (ATCC, cat. CRL-3276), 1.25 mM N-Acetyl-L-cysteine (Sigma-Aldrich, cat. A9165), 10 mM nicotinamide (Sigma-Aldrich, cat. N0636), 1X B-27 supplement (Thermo Fisher Scientific, cat. 17504044), 1X N-2 supplement (Thermo Fisher Scientific, cat. 17502048), 50 ng/mL human EGF (Thermo Fisher Scientific, cat. PHG0311), and 10 microM Y-27632 dihydrochloride (Tocris Bioscience, cat. 1254). The K12877-001-R-J1-PDC line was cultured in 6I media, which includes all 6C/Colon 1B media plus 10 ng/mL human FGF-10 (PeproTech, cat. 100-26), 1 ng/mL human FGF-2 (PeproTech, cat. 100-18B), 1 µM prostaglandin E2 (Tocris Bioscience, cat. 2296), […] hydrocortisone (Sigma-Aldrich, cat. H4001), and […] bovine insulin (Sigma-Aldrich, cat. I6634). The K86415-001-R-J1-PDC line was cultured in 6D media, which includes all 6C/Colon 1B media components minus the L-WRN conditioned media. The 485176-168-R4-J1-PDC was cultured in PANC media, which includes all 6C/Colon 1B media plus 100 ng/mL human FGF-10 (PeproTech, cat. 100-26), 500 nM SB-431542 (Selleckchem, cat. S1067), and 10 nM gastrin (Tocris Bioscience, cat. 3006). […]
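Further: spheroids exposed to agents for seven days before readout.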

Cc1nc(N2CCC3(CC2)COC(C)C3N)c(CO)nc1Sc1ccnc(N)c1Cl (configuration not stated) + CCn1c(-c2cccnc2C(C)OC)c2c3cc(ccc31)N1CCOC(CC(NC(=O)C(C(C)C)N(C)C(=O)C3(F)CCN(C(=O)C#CC(C)(C)N(C)C)CC3)C(=O)N3CCCC(N3)C(=O)OCC(C)(C)C2)C1
inactive: viability, T/C (second compound 0.000949 µM, first compound 0.0316 µM) 94.1% | viability, T/C (second compound 0.000949 µM, first compound 0.1 µM) 108% | viability, T/C (second compound 0.000949 µM, first compound 0.316 µM) 86.1% | viability, T/C (second compound 0.000949 µM, first compound 1 µM) 79.1% | viability, T/C (second compound 0.000949 µM, first compound 3.16 µM) 78.1% | viability, T/C (second compound 0.000949 µM, first compound 10 µM) 70.2% | viability, T/C (second compound 0.003 µM, first compound 0.0316 µM) 95.8% | viability, T/C (second compound 0.003 µM, first compound 0.1 µM) 98% | viability, T/C (second compound 0.003 µM, first compound 0.316 µM) 95.4% | viability, T/C (second compound 0.003 µM, first compound 1 µM) 84.8% | viability, T/C (second compound 0.003 µM, first compound 3.16 µM) 80.3% | viability, T/C (second compound 0.003 µM, first compound 10 µM) 79.5% | viability, T/C (second compound 0.00949 µM, first compound 0.0316 µM) 90% | viability, T/C (second compound 0.00949 µM, first compound 0.1 µM) 99.6% | viability, T/C (second compound 0.00949 µM, first compound 0.316 µM) 97.9% | viability, T/C (second compound 0.00949 µM, first compound 1 µM) 96.2% | viability, T/C (second compound 0.00949 µM, first compound 3.16 µM) 80.4% | viability, T/C (second compound 0.00949 µM, first compound 10 µM) 72.7% | viability, T/C (second compound 0.03 µM, first compound 0.0316 µM) 104% | viability, T/C (second compound 0.03 µM, first compound 0.1 µM) 96.9% | viability, T/C (second compound 0.03 µM, first compound 0.316 µM) 85.3% | viability, T/C (second compound 0.03 µM, first compound 1 µM) 103% | viability, T/C (second compound 0.03 µM, first compound 3.16 µM) 83.9% | viability, T/C (second compound 0.03 µM, first compound 10 µM) 61.7% | viability, T/C (second compound 0.0949 µM, first compound 0.0316 µM) 90.5% | viability, T/C (second compound 0.0949 µM, first compound 0.1 µM) 92.8% | viability, T/C (second compound 0.0949 µM, first compound 0.316 µM) 84.2% | viability, T/C (second compound 0.0949 µM, first compound 1 µM) 95.1% | viability, T/C (second compound 0.0949 µM, first compound 3.16 µM) 83.9% | viability, T/C (second compound 0.0949 µM, first compound 10 µM) 74.2% | viability, T/C (second compound 0.3 µM, first compound 0.0316 µM) 110% | viability, T/C (second compound 0.3 µM, first compound 0.1 µM) 94.6% | viability, T/C (second compound 0.3 µM, first compound 0.316 µM) 83.2% | viability, T/C (second compound 0.3 µM, first compound 1 µM) 87.2% | viability, T/C (second compound 0.3 µM, first compound 3.16 µM) 85.5% | viability, T/C (second compound 0.3 µM, first compound 10 µM) 63.3%
> 10 µM: IC50 (second compound 0.000949 µM) | IC50 (second compound 0.003 µM) | IC50 (second compound 0.00949 µM) | IC50 (second compound 0.03 µM) | IC50 (second compound 0.0949 µM) | IC50 (second compound 0.3 µM)
